Test results as given in patent publication US11180474B2 (BRISTOL-MYERS SQUIBB COMPANY, priority 2016, dated 2021).

Key:
human TLR8 = biological target: T1, human TLR8 (Homo sapiens, UniProt Q9NR97); test: TLR8 inhibition reporter assay (HEK-Blue cells, SEAP reporter, R848 stimulation); type: cell-based; conditions: HEK-Blue cells overexpressing human TLR8, R848 15.9 μM
T1 construct: host or cells: HEK-Blue cells
T1 sequence (Q9NR97 27-1041): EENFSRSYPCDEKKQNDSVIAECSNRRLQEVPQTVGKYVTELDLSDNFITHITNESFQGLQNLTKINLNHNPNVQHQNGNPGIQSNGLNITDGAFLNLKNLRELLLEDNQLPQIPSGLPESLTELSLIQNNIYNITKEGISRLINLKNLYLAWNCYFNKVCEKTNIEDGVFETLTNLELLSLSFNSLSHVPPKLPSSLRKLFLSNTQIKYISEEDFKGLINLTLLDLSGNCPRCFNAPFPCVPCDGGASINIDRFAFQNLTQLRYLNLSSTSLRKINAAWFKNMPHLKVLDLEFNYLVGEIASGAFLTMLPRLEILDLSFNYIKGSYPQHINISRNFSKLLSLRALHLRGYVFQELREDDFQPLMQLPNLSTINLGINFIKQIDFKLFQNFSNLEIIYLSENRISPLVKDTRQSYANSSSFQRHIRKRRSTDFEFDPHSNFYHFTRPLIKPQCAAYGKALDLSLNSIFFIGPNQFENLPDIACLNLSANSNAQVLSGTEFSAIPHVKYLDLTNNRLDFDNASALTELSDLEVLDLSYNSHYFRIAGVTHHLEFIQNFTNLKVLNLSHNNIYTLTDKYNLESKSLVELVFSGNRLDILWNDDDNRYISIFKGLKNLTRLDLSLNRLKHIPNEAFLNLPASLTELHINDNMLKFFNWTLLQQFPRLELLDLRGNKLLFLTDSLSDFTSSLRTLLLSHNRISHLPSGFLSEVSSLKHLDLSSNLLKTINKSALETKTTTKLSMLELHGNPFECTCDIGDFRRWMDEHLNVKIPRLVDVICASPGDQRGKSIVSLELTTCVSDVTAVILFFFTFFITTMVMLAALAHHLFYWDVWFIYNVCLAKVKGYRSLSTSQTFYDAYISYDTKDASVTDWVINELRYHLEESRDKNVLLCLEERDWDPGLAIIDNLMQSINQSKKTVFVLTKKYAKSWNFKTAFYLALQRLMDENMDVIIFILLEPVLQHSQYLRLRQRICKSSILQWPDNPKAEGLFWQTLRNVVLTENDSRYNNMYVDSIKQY
Procedure: TLR7/8/9 Inhibition Reporter Assays
Briefly, cells are seeded into Greiner 384 well plates (15000 cells per well for TLR7, 20,000 for TLR8 and 25,000 for TLR9) and then treated with test compounds in DMSO to yield a final dose response concentration range of 0.05 nM-50 μM. […] After a 22 hour incubation at 37° C., 5% CO2, SEAP levels are determined with the addition of HEK-Blue™ Detection reagent (Invivogen), a cell culture medium that allows for detection of SEAP, according to manufacturer's specifications. The percent inhibition is determined as the % reduction in the HEK-Blue signal present in wells treated with agonist plus DMSO alone compared to wells treated with a known inhibitor.

human TLR7 = biological target: T2, human TLR7 (Homo sapiens, UniProt Q9NYK1); test: TLR7 inhibition reporter assay (HEK-Blue cells, SEAP reporter, gardiquimod stimulation); type: cell-based; conditions: HEK-Blue cells overexpressing human TLR7, gardiquimod 7.5 μM
T2 construct: host or cells: HEK-Blue cells
T2 sequence (Q9NYK1 27-1049): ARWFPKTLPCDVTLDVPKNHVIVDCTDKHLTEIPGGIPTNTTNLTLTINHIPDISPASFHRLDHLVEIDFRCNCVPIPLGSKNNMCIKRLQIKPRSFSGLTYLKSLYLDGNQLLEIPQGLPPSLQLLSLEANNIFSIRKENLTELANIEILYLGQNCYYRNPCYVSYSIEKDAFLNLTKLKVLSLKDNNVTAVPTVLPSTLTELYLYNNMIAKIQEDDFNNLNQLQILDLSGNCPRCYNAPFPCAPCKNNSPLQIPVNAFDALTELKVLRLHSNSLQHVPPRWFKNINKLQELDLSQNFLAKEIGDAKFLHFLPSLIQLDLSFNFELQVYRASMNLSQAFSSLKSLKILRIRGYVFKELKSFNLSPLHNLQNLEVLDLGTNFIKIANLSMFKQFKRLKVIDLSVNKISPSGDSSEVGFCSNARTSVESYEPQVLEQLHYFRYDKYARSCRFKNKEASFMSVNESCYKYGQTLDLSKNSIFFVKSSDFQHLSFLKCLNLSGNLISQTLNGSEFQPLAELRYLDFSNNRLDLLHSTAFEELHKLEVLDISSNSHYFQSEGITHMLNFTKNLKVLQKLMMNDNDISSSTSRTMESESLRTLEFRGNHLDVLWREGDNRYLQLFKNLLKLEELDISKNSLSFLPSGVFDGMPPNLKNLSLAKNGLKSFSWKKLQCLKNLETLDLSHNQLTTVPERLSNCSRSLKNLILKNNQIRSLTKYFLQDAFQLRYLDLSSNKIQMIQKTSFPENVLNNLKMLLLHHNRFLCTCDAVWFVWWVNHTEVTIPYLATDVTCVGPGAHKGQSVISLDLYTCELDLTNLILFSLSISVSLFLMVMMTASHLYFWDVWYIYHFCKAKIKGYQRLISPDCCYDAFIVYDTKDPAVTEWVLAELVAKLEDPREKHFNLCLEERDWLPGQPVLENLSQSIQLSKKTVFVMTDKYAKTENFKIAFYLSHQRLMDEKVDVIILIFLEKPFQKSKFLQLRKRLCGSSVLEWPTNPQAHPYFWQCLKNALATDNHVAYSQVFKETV
Summary of the method: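 22 h, 37° C, 5% CO2 incubation; compounds 0.05 nM-50 μM final; TLR7 cells 15000/well, TLR8 20,000/well. Readout: SEAP via HEK-Blue Detection medium. % inhibition = signal reduction versus agonist + DMSO wells, referenced to known inhibitor.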

| SMILES | IC50 (human TLR8) [nM] | IC50 (human TLR7) [nM] |
| --- | --- | --- |
| COc1ccc(-c2[nH]c3ccc(C4CCN(C5CCN(CC(C)C)CC5)CC4)cc3c2C)cc1OC [Example 6, 2-(3,4-dimethoxyphenyl)-5-(1′-isobutyl-[1,4′-bipiperidin]-4-yl)-3-methyl-1H-indole] | 247 | 1230 |
| COc1ccc(-c2[nH]c3ccc(C4CCN(C5CCN(Cc6ccccc6)CC5)CC4)cc3c2C)cc1OC [Example 9, 5-(1′-benzyl-[1,4′-bipiperidin]-4-yl)-2-(3,4-dimethoxyphenyl)-3-methyl-1H-indole] | 457 | 1550 |
| COc1ccc(-c2[nH]c3ccc(C4CCN(C5CCN(C(C)C)CC5)CC4)cc3c2C)cc1OC [Example 10, 2-(3,4-dimethoxyphenyl)-5-(1′-isopropyl-[1,4′-bipiperidin]-4-yl)-3-methyl-1H-indole] | 201 | 606 |
| CNCCN1CCC(c2ccc3c(c2)c(C)c(-c2ccc(OC)c(OC)c2)n3C)CC1 [Example 114, 2-(4-(2-(3,4-dimethoxyphenyl)-1,3-dimethyl-1H-indol-5-yl)piperidin-1-yl)-N-methylethan-1-amine] | 958 | 5260 |
| COc1ccc(-c2[nH]c3cc(C)c(C4CCN(C5CCN(C(C)C)CC5)CC4)cc3c2C)cc1OC [Example 115, 2-(3,4-dimethoxyphenyl)-5-(1′-isopropyl-[1,4′-bipiperidin]-4-yl)-3,6-dimethyl-1H-indole-di-trifluoroacetic acid] | 2230 | 132 |
| CNCCN1CCC(c2ccc3[nH]c(-c4ccc(OC)c(OC)c4)c(CC(C)C)c3c2)CC1 [Example 116, trifluoroacetic acid] | 95 | 1290 |

Other lines, results leading:

| IC50 (human TLR8) [nM] | IC50 (human TLR7) [nM] | SMILES |
| --- | --- | --- |
| 6550 | 8920 | CCc1c(-c2ccc(OC)c(OC)c2)[nH]c2ccc(C3CCN(C(=O)CN4CCCC(C(=O)O)C4)CC3)cc12 (racemic) [Example 176, 1-(2-(4-(2-(3,4-dimethoxyphenyl)-3-ethyl-1H-indol-5-yl)piperidin-1-yl)-2-oxoethyl)piperidine-3-carboxylic acid] |
| 131 | 480 | CCc1c(-c2ccc(OC)c(OC)c2)[nH]c2ccc(C3CCN(C(=O)CN4CCCC(C(=O)N(CC)CC)C4)CC3)cc12 (single isomer, unassigned) [Example 178, 1-(2-(4-(2-(3,4-dimethoxyphenyl)-3-ethyl-1H-indol-5-yl)piperidin-1-yl)-2-oxoethyl)-N,N-diethylpiperidine-3-carboxamide] |
| 68 | 280 | CCc1c(-c2ccc(OC)c(OC)c2)[nH]c2ccc(C3CCN(C(=O)CN4CCCC(C(=O)N(CC)CC)C4)CC3)cc12 (single isomer, unassigned) [Example 179, 1-(2-(4-(2-(3,4-dimethoxyphenyl)-3-ethyl-1H-indol-5-yl)piperidin-1-yl)-2-oxoethyl)-N,N-diethylpiperidine-3-carboxamide] |
| 1260 | 2740 | COc1ccc(-c2[nH]c3ccc(C4CCN(C5CCN(CC(C)C)CC5)CC4)cc3c2Cl)cc1OC [Example 120, 3-chloro-2-(3,4-dimethoxyphenyl)-5-(1′-isobutyl-[1,4′-bipiperidin]-4-yl)-1H-indole di-trifluoroacetic acid] |
| 65 | 661 | CCCc1c(-c2ccc(OC)c(OC)c2)[nH]c2ccc(C3CCN(C4CCN(CC(C)C)CC4)CC3)cc12 [Example 121, 2-(3,4-dimethoxyphenyl)-5-(1′-isobutyl-[1,4′-bipiperidin]-4-yl)-3-propyl-1H-indole-di-trifluoroacetic acid] |
| 26 | 57 | CCc1c(-c2ccc(OC)c(OC)c2)[nH]c2ccc(C3CCNCC3)cc12 [Example 122, 2-(3,4-dimethoxyphenyl)-3-ethyl-5-(piperidin-4-yl)-1H-indole] |
| 150 | 398 | CCc1c(-c2ccc(OC)c(OC)c2)[nH]c2ccc(C3CCN(C4CCN(CC(C)C)CC4)CC3)cc12 [Example 123, 2-(3,4-dimethoxyphenyl)-3-ethyl-5-(1′-isobutyl-[1,4′-bipiperidin]-4-yl)-1H-indole-di-trifluoroacetic acid] |
